According to patent publication US20200163984A1, “USE OF ISOVALERYL SPIRAMYCIN I, II AND/OR III IN MANUFACTURING MEDICAMENT FOR TREATING AND/OR PREVENTING TUMOR, AND MEDICAMENT” (SHENYANG FUYANG PHARMACEUTICAL TECHNOLOGY CO., LTD., priority 2017, published 2020):
Blank lines part the entries; values can stand above or below the molecule they belong to.

Columns and labels:
[1] = Spleen index of A549 lung cancer tumor-bearing mice; details: for Spleen Index (%): n = 6
[2] = system: transplanted tumor of human pancreatic cancer cell PANC-1; experiment: PANC-1 transplanted tumor in nude mice; details: for Tumor Volume (mm3) (d 1): d1
Procedure: (§1) Then cell concentration was adjusted to 1×10^7/ml with matrigel, then each nude mouse was inoculated subcutaneously with 0.2 ml of cells at its right armpit and recorded as the first day of inoculation. When the tumor grows to be greater than or equal to 100 mm^3, the mice were randomly divided into 11 groups with 6 mice in each group: a model group, a cyclophosphamide group, isovaleryl spiramycin I groups with doses of 25, 50 and 100 mg/kg, isovaleryl spiramycin II groups with doses of 25, 50 and 100 mg/kg, and isovaleryl spiramycin III groups with doses of 25, 50 and 100 mg/kg. Each group was continuously administered intragastrically for 30 days with a dose of 20 ml/kg. The mice were sacrificed the next day after drug withdrawal and the indicators were tested. The long diameter and short diameter of the tumor, and the body weight of each mouse were recorded every 3 days from drug administration to nude mouse sacrifice.
(§2) The body weight of the nude mice and the long diameter (a) and short diameter (b) of the transplanted tumor were measured every 3 days, and the tumor volume (v), relative tumor volume (RTV) and relative tumor proliferation rate (T/C) are calculated respectively according to the following formulas, wherein V=a×b^2/2; RTV=V/V0 (V0 is the tumor volume before administration, V is the tumor volume before sacrifice), and T/C (%)=treatment group RTV/model control group RTV×100%.
(§3) Each mouse was weighed and sacrificed. After the tumor was completely stripped off from the body of the mouse, the non-tumor tissues such as blood stains and fat were removed to weigh the tumor and calculate the tumor growth inhibition rate. The average tumor weight of each group of mice is used as an indicator of efficacy. Tumor growth inhibition rate (%)=(1−the average tumor weight of the treatment group/the average tumor weight of the model group)×100%.

[3] = system: transplanted tumor of human large cell lung cancer H460 cells; experiment: H460 transplanted tumor in nude mice
Procedure: as §1, with “group:” for “group: a model group, a cyclophosphamide group,”
as §2, §3

[4] = system: transplanted tumor of human gastric adenocarcinoma cell SGC7901; experiment: SGC7901 transplanted tumor in nude mice
Procedure: as §1, §2, §3

[5] = PANC-1, 12.5 mg/kg (low dose) i.g. 30 days
[6] = PANC-1, 25 mg/kg (medium dose) i.g. 30 days
[7] = PANC-1, 50 mg/kg (high dose) i.g. 30 days
[8] = H460, 25 mg/kg (low dose) i.g. 30 days
[9] = H460, 50 mg/kg (medium dose) i.g. 30 days
[10] = H460, 100 mg/kg (high dose) i.g. 30 days
[11] = SGC7901, 12.5 mg/kg (low dose) i.g. 30 days
[12] = SGC7901, 25 mg/kg (medium dose) i.g. 30 days
[13] = SGC7901, 50 mg/kg (high dose) i.g. 30 days

Compound: O=P1(N(CCCl)CCCl)NCCCO1 (centres unmarked) [Cyclophosphamide, cyclophosphamide, reference compound]
- spleen index compared with the control group ([1]; A549 tumor-bearing mice, cyclophosphamide, P<0.01): significantly lower
- Spleen Index (%) ([1]; dose 26 mg/kg): 0.21 ± 0.07 %
- Body Weight (d 1) ([2]; PANC-1, 30 mg/kg i.g. 30 days): 22.03 ± 0.70 g
- Body Weight (d 30) ([2]; PANC-1, 30 mg/kg i.g. 30 days): 17.77 ± 0.65 g
- Inhibition Rate (tumor growth inhibition rate) ([2]; PANC-1, 30 mg/kg i.g. 30 days): 70.18%
- Tumor Weight ([2]; PANC-1, 30 mg/kg i.g. 30 days): 0.81 ± 0.25*8 g
- Relative Tumor Proliferation Rate (T/C) ([2]; PANC-1 nude mice, 30 mg/kg): 29.56%
- Relative Tumor Volume (RTV) ([2]; PANC-1 nude mice, 30 mg/kg): 5.17 ± 0.64
- Tumor Volume (mm3) (d 1) ([2]; PANC-1 nude mice, 30 mg/kg): 103.78 ± 12.65 mm3
- Tumor Volume (mm3) (d30) ([2]; PANC-1 nude mice, 30 mg/kg): 532.62 ± 56.27 mm3
- Body Weight (d 1) ([3]; H460, 30 mg/kg i.g. 30 days): 20.46 ± 0.54 g
- Body Weight (d 30) ([3]; H460, 30 mg/kg i.g. 30 days): 21.20 ± 0.75 g
- Inhibition Rate (tumor growth inhibition rate) ([3]; H460, 30 mg/kg i.g. 30 days): 71.08%
- Relative Tumor Proliferation Rate (T/C) ([3]; H460, 30 mg/kg i.g. 30 days): 30.86%
- Relative Tumor Volume (RTV) ([3]; H460, 30 mg/kg i.g. 30 days): 3.24 ± 0.99
- Tumor Volume (d 1) ([3]; H460, 30 mg/kg i.g. 30 days): 146.98 ± 27.55 mm3
- Tumor Volume (d 30) ([3]; H460, 30 mg/kg i.g. 30 days): 468.49 ± 128.57 mm3
- Tumor Weight ([3]; H460, 30 mg/kg i.g. 30 days): 0.50 ± 0.06 g
- Body Weight (d 1) ([4]; SGC7901, 30 mg/kg i.g. 30 days): 22.63 ± 1.35 g
- Body Weight (d 30) ([4]; SGC7901, 30 mg/kg i.g. 30 days): 19.85 ± 0.72 g
- Inhibition Rate (tumor growth inhibition rate) ([4]; SGC7901, 30 mg/kg i.g. 30 days): 72.26%
- Relative Tumor Proliferation Rate (T/C) ([4]; SGC7901, 30 mg/kg i.g. 30 days): 30.71%
- Relative Tumor Volume (RTV) ([4]; SGC7901, 30 mg/kg i.g. 30 days): 4.27 ± 2.36
- Tumor Volume (d 1) ([4]; SGC7901, 30 mg/kg i.g. 30 days): 252.63 ± 74.57 mm3
- Tumor Volume (d 30) ([4]; SGC7901, 30 mg/kg i.g. 30 days): 865.27 ± 422.15 mm3
- Tumor Weight ([4]; SGC7901, 30 mg/kg i.g. 30 days): 0.44 ± 0.41 g

- mouse weight compared with the model group ([2]; mouse, in vivo): no significant changes
- mouse weight compared with the model group ([3]; mouse, in vivo): no significant changes
- mouse weight compared with the model group ([4]; mouse, in vivo): no significant changes
Compound: CO[C@@H]1[C@@H](O[C@@H]2O[C@H](C)[C@@H](O[C@H]3C[C@@](C)(O)[C@@H](OC(=O)CC(C)C)[C@H](C)O3)[C@H](N(C)C)[C@H]2O)[C@@H](CC=O)C[C@@H](C)[C@@H](O[C@H]2CC[C@H](N(C)C)[C@@H](C)O2)/C=C/C=C/C[C@@H](C)OC(=O)C[C@H]1O [Isovaleryl spiramycin I, isovaleryl spiramycin I]
- Spleen Index (%) ([1]; dose 13 mg/kg): 0.32 ± 0.12%
- Spleen Index (%) ([1]; dose 26 mg/kg): 0.38 ± 0.09%
- Spleen Index (%) ([1]; dose 52 mg/kg): 0.31 ± 0.08%
- Inhibition Rate (tumor growth inhibition rate) [2, 5]: 31.10%
- Tumor Weight [2, 5]: 1.87 ± 0.25 g
- Inhibition Rate (tumor growth inhibition rate) [2, 6]: 51.72%
- Tumor Weight [2, 6]: 1.31 ± 0.50 g
- Inhibition Rate (tumor growth inhibition rate) [2, 7]: 70.12%
- Tumor Weight [2, 7]: 0.81 ± 0.08 g
- Relative Tumor Proliferation Rate (T/C) ([2]; PANC-1, high dose i.g. 30 days): 30.80%
- Relative Tumor Proliferation Rate (T/C) ([2]; PANC-1, low dose i.g. 30 days): 71.92%
- tumor volume and relative tumor volume compared with the model group ([2]; PANC-1, low, medium and high doses, P<0.05): significantly lower
- Relative Tumor Proliferation Rate (T/C) ([2]; PANC-1, medium dose i.g. 30 days): 49.05%
- Relative Tumor Proliferation Rate (T/C) ([2]; PANC-1 nude mice, 12.5 mg/kg): 71.92%
- Relative Tumor Volume (RTV) ([2]; PANC-1 nude mice, 12.5 mg/kg): 12.59 ± 7.49
- Tumor Volume (mm3) (d 1) ([2]; PANC-1 nude mice, 12.5 mg/kg): 139.97 ± 26.58 mm3
- Tumor Volume (mm3) (d30) ([2]; PANC-1 nude mice, 12.5 mg/kg): 1634.85 ± 789.61 mm3
- Relative Tumor Proliferation Rate (T/C) ([2]; PANC-1 nude mice, 25 mg/kg): 49.05%
- Relative Tumor Volume (RTV) ([2]; PANC-1 nude mice, 25 mg/kg): 8.58 ± 4.41
- Tumor Volume (mm3) (d 1) ([2]; PANC-1 nude mice, 25 mg/kg): 146.57 ± 32.97 mm3
- Tumor Volume (mm3) (d30) ([2]; PANC-1 nude mice, 25 mg/kg): 1162.80 ± 394.71 mm3
- Relative Tumor Proliferation Rate (T/C) ([2]; PANC-1 nude mice, 50 mg/kg): 30.80%
- Relative Tumor Volume (RTV) ([2]; PANC-1 nude mice, 50 mg/kg): 5.39 ± 0.97
- Tumor Volume (mm3) (d 1) ([2]; PANC-1 nude mice, 50 mg/kg): 124.02 ± 15.14 mm3
- Tumor Volume (mm3) (d30) ([2]; PANC-1 nude mice, 50 mg/kg): 656.95 ± 49.58 mm3
- Inhibition Rate (tumor growth inhibition rate) [3, 8]: 20.70%
- Relative Tumor Proliferation Rate (T/C) [3, 8]: 56.56%
- Relative Tumor Volume (RTV) [3, 8]: 5.94 ± 2.02
- Tumor Volume (d 1) [3, 8]: 148.20 ± 15.93 mm3
- Tumor Volume (d 30) [3, 8]: 889.44 ± 343.94 mm3
- Tumor Weight [3, 8]: 1.37 ± 0.13 g
- Inhibition Rate (tumor growth inhibition rate) [3, 9]: 46.33%
- Relative Tumor Proliferation Rate (T/C) [3, 9]: 49.00%
- Relative Tumor Volume (RTV) [3, 9]: 5.15 ± 2.25
- Tumor Volume (d 1) [3, 9]: 148.51 ± 17.68 mm3
- Tumor Volume (d 30) [3, 9]: 753.94 ± 306.82 mm3
- Tumor Weight [3, 9]: 0.93 ± 0.18 g
- Inhibition Rate (tumor growth inhibition rate) [3, 10]: 70.11%
- Relative Tumor Proliferation Rate (T/C) [3, 10]: 31.96%
- Relative Tumor Volume (RTV) [3, 10]: 3.36 ± 0.85
- Tumor Volume (d 1) [3, 10]: 145.08 ± 19.59 mm3
- Tumor Volume (d 30) [3, 10]: 477.54 ± 89.21 mm3
- Tumor Weight [3, 10]: 0.52 ± 0.07 g
- tumor volume and relative tumor volume compared with the model group ([3]; H460, low, medium and high doses, P<0.05): significantly lower
- Inhibition Rate (tumor growth inhibition rate) [4, 11]: 31.56%
- Relative Tumor Proliferation Rate (T/C) [4, 11]: 61.13%
- Relative Tumor Volume (RTV) [4, 11]: 5.37 ± 3.46
- Tumor Volume (d 1) [4, 11]: 412.96 ± 157.62 mm3
- Tumor Volume (d 30) [4, 11]: 2815.50 ± 770.23 mm3
- Tumor Weight [4, 11]: 1.07 ± 0.53 g
- Inhibition Rate (tumor growth inhibition rate) [4, 12]: 53.13%
- Relative Tumor Proliferation Rate (T/C) [4, 12]: 42.67%
- Relative Tumor Volume (RTV) [4, 12]: 3.98 ± 2.78
- Tumor Volume (d 1) [4, 12]: 258.63 ± 104.26 mm3
- Tumor Volume (d 30) [4, 12]: 1230.76 ± 635.23 mm3
- Tumor Weight [4, 12]: 0.74 ± 0.52 g
- Inhibition Rate (tumor growth inhibition rate) [4, 13]: 70.78%
- Relative Tumor Proliferation Rate (T/C) [4, 13]: 20.23%
- Relative Tumor Volume (RTV) [4, 13]: 3.64 ± 1.65
- Tumor Volume (d 1) [4, 13]: 279.56 ± 156.70 mm3
- Tumor Volume (d 30) [4, 13]: 630.69 ± 458.86 mm3
- Tumor Weight [4, 13]: 0.46 ± 0.36 g
- tumor volume and relative tumor volume compared with the model group ([4]; SGC7901, low, medium and high doses, P<0.05): significantly lower
